Results: patent US12410160B2 (Gilead Sciences, Inc., priority 2021, dated 2025)

Key:
human KHK-A = human KHK-A (Homo sapiens (Human), UniProt P50053); test: KHK Biochemical Assay (IC50), ADP-Glo, KHK-A; details: average of at least two separate assays
Outline: (§1)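 His-tagged enzyme expressed in BL21 (DE3), Ni-NTA purified. Compounds, serially diluted 1:3 in DMSO, pre-incubated 30 min with enzyme in 50 mM Hepes pH 7.4, 140 mM KCl, 5 mM MgCl2, 0.01% Triton-X, then ATP and fructose added; 4 h at room temperature. ADP formation read by ADP-Glo luminescence.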

human KHK-C = human KHK-C (Homo sapiens (Human), UniProt P50053); test: KHK Biochemical Assay (IC50), ADP-Glo, KHK-C; details: average of at least two separate assays
human KHK-C, sequence (P50053 whole entry): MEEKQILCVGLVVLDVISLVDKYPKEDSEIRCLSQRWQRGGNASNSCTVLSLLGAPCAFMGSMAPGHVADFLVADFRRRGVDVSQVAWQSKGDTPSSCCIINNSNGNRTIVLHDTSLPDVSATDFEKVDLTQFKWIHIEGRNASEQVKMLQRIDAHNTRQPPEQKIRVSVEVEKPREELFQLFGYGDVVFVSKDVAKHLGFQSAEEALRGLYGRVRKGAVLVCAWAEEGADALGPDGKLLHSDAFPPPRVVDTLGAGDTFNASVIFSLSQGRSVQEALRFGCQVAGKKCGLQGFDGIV
Outline: as §1

human KHK-A, sequence (P50053 other isoform, or with tags, fused parts or gaps): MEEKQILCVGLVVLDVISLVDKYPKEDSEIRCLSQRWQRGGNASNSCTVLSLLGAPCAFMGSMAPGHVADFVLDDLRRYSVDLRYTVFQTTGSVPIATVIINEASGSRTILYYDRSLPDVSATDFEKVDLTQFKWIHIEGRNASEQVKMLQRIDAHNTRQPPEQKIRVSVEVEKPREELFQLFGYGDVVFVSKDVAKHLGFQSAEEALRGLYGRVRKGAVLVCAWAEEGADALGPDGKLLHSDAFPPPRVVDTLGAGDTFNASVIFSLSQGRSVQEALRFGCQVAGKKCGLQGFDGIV

| Molecule | IC50 (human KHK-A; ADP-Glo) | IC50 (human KHK-C; ADP-Glo) | IC50 (human KHK-A) | IC50 (human KHK-C) |
| --- | --- | --- | --- | --- |
| C[C@H]1CCN1c1nc2c(c(-c3ccc(S(=N)(N)=O)cc3)n1)CCC2 (stereo partly drawn) [Example 874, 4-(2-((S)-2-methylazetidin-1-yl)-6,7-dihydro-5H-cyclopenta[d]pyrimidin-4-yl)benzenesulfonimidamide] | 88.4 nM | 72.3 nM |  |  |
| C[C@H]1CCN1c1nc2c(c(-c3cccc(Sc4ccc(C#N)cc4)c3)n1)CCC2 [Example 863, (S)-4-((3-(2-(2-methylazetidin-1-yl)-6,7-dihydro-5H-cyclopenta[d]pyrimidin-4-yl)phenyl)thio)benzonitrile] | > 1000 nM | > 1000 nM |  |  |
| C[C@H]1CCN1c1nc2c(c(-c3cccc(NS(C)(=O)=O)c3)n1)CCC2 [Example 42, (S)—N-(3-(2-(2-methylazetidin-1-yl)-6,7-dihydro-5H-cyclopenta[d]pyrimidin-4-yl)phenyl)methanesulfonamide] | 31.8 nM | 22.7 nM |  |  |
| C[C@H]1CCN1c1nc2c(c(-c3cc4c(N)nn(C(=O)OC(C)(C)C)c4cn3)n1)CCC2 [Example 868, tert-butyl (S)-3-amino-5-(2-(2-methylazetidin-1-yl)-6,7-dihydro-5H-cyclopenta[d]pyrimidin-4-yl)-1H-pyrazolo[3,4-c]pyridine-1-carboxylate] | 158 nM | 230 nM |  |  |
| C[C@H]1CCN1c1nc2c(c(-c3cccc(C(=O)N[C@H]4CC[C@@H]4O)c3)n1)CCC2 (racemic) [Example 59, N-((18*,28*)-2-hydroxycyclobutyl)-3-(2-((8)-2-methylazetidin-1-yl)-6,7-dihydro-5H-cyclopenta[d]pyrimidin-4-yl)benzamide] | 42.9 nM | 171 nM |  |  |
| NC1(c2ccc(-c3nc(N4CC[C@@H]4C(F)(F)F)nc4c3CCC4(F)F)cc2)CCS(=O)(=O)CC1 [Example 738, (R)-4-amino-4-(4-(7,7-difluoro-2-(2-(trifluoromethyl)azetidin-1-yl)-6,7-dihydro-5H-cyclopenta[d]pyrimidin-4-yl)phenyl)tetrahydro-2H-thiopyran 1,1-dioxide] |  |  | 2 nM | 2 nM |
| CC1Cc2cc(-c3nc(N4CC[C@@H]4C)nc4c3CCC4)ccc2C1NS(C)(=O)=O (stereo partly drawn) [Example 891, N-(2-methyl-5-(2-((S)-2-methylazetidin-1-yl)-6,7-dihydro-5H-cyclopenta[d]pyrimidin-4-yl)-2,3-dihydro-1H-inden-1-yl)methanesulfonamide] | 167 nM | 59.5 nM |  |  |
| Cc1cc(-c2nc(N3CC[C@@H]3C)nc3c2CCC3)cc2c1C(NS(C)(=O)=O)CO2 (stereo partly drawn) [Example 889, N-(4-methyl-6-(2-((S)-2-methylazetidin-1-yl)-6,7-dihydro-5H-cyclopenta[d]pyrimidin-4-yl)-2,3-dihydrobenzofuran-3-yl)methanesulfonamide] | 98.8 nM | 17.1 nM |  |  |
| C[C@H]1CCN1c1nc2c(c(-c3ccc(C(C)(C)O)cc3)n1)CCC2 [Example 369, 2-[4-[2-[(2S)-2-methylazetidin-1-yl]-6,7-dihydro-5H-cyclopenta[d]pyrimidin-4-yl]phenyl]propan-2-ol] | 186 nM | 87.1 nM |  |  |
| C[C@H]1CCN1c1nc2c(c(-c3ccc4c(c3)C3(CC4)CNC(=O)C3)n1)CCC2 (stereo partly drawn) [Example 875, 6-(2-((S)-2-methylazetidin-1-yl)-6,7-dihydro-5H-cyclopenta[d]pyrimidin-4-yl)-2,3-dihydrospiro[indene-1,3′-pyrrolidin]-5′-one] | 67 nM | 58 nM |  |  |
| C[C@H]1CCN1c1nc(-c2ccccc2)c2occc2n1 [Example 12, (S)-2-(2-methylazetidin-1-yl)-4-phenylfuro[3,2-d]pyrimidine] | 2620 nM | 2600 nM |  |  |
| C[C@H]1CCN1c1nc2c(c(-c3cccc(N)c3)n1)CCC2 [Example 71, (S)-3-(2-(2-methylazetidin-1-yl)-6,7-dihydro-5H-cyclopenta[d]pyrimidin-4-yl)aniline] | 107 nM | 104 nM |  |  |
| CC(=O)Nc1cccc(-c2nc(N3CC[C@@H]3C)nc3c2CCC3)c1 [Example 40, (S)—N-(3-(2-(2-methylazetidin-1-yl)-6,7-dihydro-5H-cyclopenta[d]pyrimidin-4-yl)phenyl)acetamide] | 54.3 nM | 57 nM |  |  |
| C[C@H]1CCN1c1nc2c(c(-c3ccccc3O)n1)CCC2 [Example 260, 2-[2-[(2S)-2-methylazetidin-1-yl]-6,7-dihydro-5H-cyclopenta[d]pyrimidin-4-yl]phenol] | 746 nM | 633 nM |  |  |
| C[C@H]1[C@@H](F)CN1c1nc(-c2ccc3c(c2)COC[C@@H]3NS(C)(=O)=O)c2c(n1)C(F)(F)CC2 [Example 583, N—((R)-7-(7,7-difluoro-2-((28,38)-3-fluoro-2-methylazetidin-1-yl)-6,7-dihydro-5H-cyclopenta[d]pyrimidin-4-yl)isochroman-4-yl)methanesulfonamide] |  |  | 8.7 nM | 1.3 nM |
| C[C@H]1CCN1c1nc2c(c(-c3ccc(C4CNC4)cc3)n1)CCC2 [Example 233, 4-[4-(azetidin-3-yl)phenyl]-2-[(2S)-2-methylazetidin-1-yl]-6,7-dihydro-5H-cyclopenta[d]pyrimidine] | 55.7 nM | 9.7 nM |  |  |
| C[C@H]1CCN1c1nc(-c2cccc(C(N)=O)c2)c2c(n1)C1CCC2C1 (stereo partly drawn) [Example 33, 3-(2-((S)-2-methylazetidin-1-yl)-5,6,7,8-tetrahydro-5,8-methanoquinazolin-4-yl)benzamide] | 272 nM | 240 nM |  |  |
| NS(=O)(=O)c1cccc(-c2nc(N3CC4CCCC43)nc3c2CCC3)c1 (racemic) [Example 79, (rac)-3-(2-(6-azabicyclo[3.2.0]heptan-6-yl)-6,7-dihydro-5H-cyclopenta[d]pyrimidin-4-yl)benzenesulfonamide] | 6960 nM | 4990 nM |  |  |
| C[C@H]1CCN1c1nc2c(c(-c3cccc(C#N)c3)n1)CCC2 [Example 7, (S)-3-(2-(2-methylazetidin-1-yl)-6,7-dihydro-5H-cyclopenta[d]pyrimidin-4-yl)benzonitrile] | 439 nM | 373 nM |  |  |
| C[C@H]1CCN1c1nc2c(c(-c3ccc4c(c3)C(NS(C)(=O)=O)CCO4)n1)CCC2 (stereo partly drawn) [Example 883, N-(6-(2-((S)-2-methylazetidin-1-yl)-6,7-dihydro-5H-cyclopenta[d]pyrimidin-4-yl)chroman-4-yl)methanesulfonamide] | 21 nM | 14.6 nM |  |  |
| CC1=C(c2nc3c(c(-c4ccc(C(N)=O)cc4)n2)CCC3)CCC1=O [Example 117, 4-(2-(2-methyl-3-oxocyclopent-1-en-1-yl)-6,7-dihydro-5H-cyclopenta[d]pyrimidin-4-yl)benzamide] | 4780 nM | 3780 nM |  |  |
| (S)-4-(2-(2-methylazetidin-1-yl)-6,7-dihydro-5H-cyclopenta[d]pyrimidin-4-yl)pyridine-2-sulfonamide [Example 224] | 155 nM | 114 nM |  |  |
| C[C@H]1CCN1c1nc2c(c(-c3cccc(NS(=O)(=O)c4cn(C)cn4)c3)n1)CCC2 [Example 73, (S)-1-methyl-N-(3-(2-(2-methylazetidin-1-yl)-6,7-dihydro-5H-cyclopenta[d]pyrimidin-4-yl)phenyl)-1H-imidazole-4-sulfonamide] | 175 nM | 156 nM |  |  |
